Results as given in patent publication US20220106301A1, “ACETAMIDO-PHENYLBENZAMIDE DERIVATIVES AND METHODS OF USING THE SAME” (Athenex, Inc., priority 2020, published 2022).

biological target: CYP3A4 (Homo sapiens, UniProt P08684); test: Determination of CYP3A4 inhibitory activity (human liver microsome, Luciferin-IPA); details: CYP3A4 IC50 (nM), 37° C. 11 minutes
Protocol: The standard final Compound concentrations were 37, 111, 333, 1000, and 3000 nM. 12.5 μL of the Compound dilutions were transferred to a white 96-well plate. […] 25 μL of the buffer was added to each well. The plates were incubated at 37° C. for 11 minutes. 50 μL of luciferin detection reagent (Promega V9002) was added and the plates were incubated at room temperature for 5 minutes. The plate was read with a luminometer.
The dose-response curve and IC50 were obtained by fitting data to nonlinear regression model using GraphPad Prism software (v6.0).

Sequence of CYP3A4 (P08684 whole entry): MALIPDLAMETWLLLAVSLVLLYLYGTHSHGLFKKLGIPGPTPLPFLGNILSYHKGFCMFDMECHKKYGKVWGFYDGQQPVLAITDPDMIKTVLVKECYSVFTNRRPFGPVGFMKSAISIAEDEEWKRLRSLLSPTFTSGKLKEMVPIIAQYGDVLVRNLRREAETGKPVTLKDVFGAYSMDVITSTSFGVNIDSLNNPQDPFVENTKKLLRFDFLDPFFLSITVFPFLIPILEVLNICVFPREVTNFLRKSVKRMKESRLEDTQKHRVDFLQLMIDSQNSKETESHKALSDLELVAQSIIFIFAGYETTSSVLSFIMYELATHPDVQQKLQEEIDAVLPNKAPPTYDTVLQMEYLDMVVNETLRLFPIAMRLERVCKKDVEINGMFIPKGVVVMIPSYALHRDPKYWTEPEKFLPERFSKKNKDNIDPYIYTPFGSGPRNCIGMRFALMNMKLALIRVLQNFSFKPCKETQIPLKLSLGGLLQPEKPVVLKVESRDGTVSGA

IC50	Structure (SMILES)
100 to 250 nM	CN(CCc1ccc(NC(=O)c2ccc(C(=O)OCc3cscn3)cc2NC(=O)c2cc(=O)c3ccccc3o2)cc1)Cc1ccc2c(cnn2C)c1 [Compound 280]
250 to 500 nM	COc1cnccc1CN(CCc1ccc(NC(=O)c2cc(OC)c(OC)cc2NC(=O)c2cc(=O)c3ccccc3o2)cc1)Cc1ccc2c(cnn2C)c1 [Compound 49]
> 1000 nM	COc1cc2c(cc1OC)CN(CCc1ccc(NC(=O)c3ccc(C(=O)OCc4ccncc4)cc3NC(=O)c3cc(=O)c4ccccc4o3)cc1)CC2 [Compound 81]
250 to 500 nM	CCCN(CCc1ccc(NC(=O)c2cc(OC)c(OC)cc2NC(=O)c2cc(=O)c3ccccc3o2)cc1)Cc1cccc(-n2ccnc2)c1 [Compound 90]
500 to 1000 nM	COc1cc(NC(=O)c2cc(=O)c3ccccc3o2)c(C(=O)Nc2ccc(CCN(C)Cc3cnc(-n4ccnc4)nc3)cc2)cc1OC [Compound 126]
250 to 500 nM	COc1cc(NC(=O)c2cc(=O)c3cc(C)cc(C)c3o2)c(C(=O)Nc2ccc(CCN(Cc3cccnc3)Cc3ccc4c(cnn4C)c3)cc2)cc1OC [Compound 39]
< 100 nM	COc1cc(NC(=O)c2cc(=O)c3ccccc3o2)c(C(=O)Nc2ccc(CCN(C)C(=O)c3ccc(-n4ccnc4)cc3)cc2)cc1OC [Compound 123]
> 1000 nM	COc1cc(NC(=O)c2cc(=O)c3ccccc3o2)c(C(=O)Nc2ccc(CCN(C)Cc3ccc(-c4nn[nH]n4)cc3)cc2)cc1OC [Compound 148]
< 100 nM	CCN(CCc1ccc(NC(=O)c2cc(OC)c(OC)cc2NC(=O)c2cc(=O)c3ccccc3o2)cc1)Cc1cccc(OCCn2ccnc2)c1 [Compound 130]
100 to 250 nM	COc1cncc(CN(CCc2ccc(NC(=O)c3cc(OC)c(OC)cc3NC(=O)c3cc(=O)c4ccc(C)cc4o3)cc2)Cc2ccc3c(cnn3C)c2)c1 [Compound 222]
500 to 1000 nM	COc1cc(NC(=O)c2cnc3ccccc3c2)c(C(=O)Nc2ccc(CCN(Cc3ccc(-n4ccnc4)cc3)Cc3ccc4c(cnn4C)c3)cc2)cc1OC [Compound 145]
500 to 1000 nM	COCCOc1cncc(CN(CCc2ccc(NC(=O)c3cc(OC)c(OC)cc3NC(=O)c3cnc4ccccc4n3)cc2)Cc2ccc3c(cnn3C)c2)c1 [Compound 62]
100 to 250 nM	COc1cc(NC(=O)c2cc(=O)c3cc(C)ccc3o2)c(C(=O)Nc2ccc(CCN(Cc3cccnc3)Cc3ccc4c(c3)c(C)nn4C)cc2)cc1OC [Compound 66]
250 to 500 nM	COc1cc(NC(=O)c2cc(=O)c3ccccc3o2)c(C(=O)Nc2ccc(CCN(Cc3cccc(OC[C@@H]4CO[C@@](Cn5ccnc5)(c5ccc(Cl)cc5Cl)O4)c3)Cc3ccc4c(cnn4C)c3)cc2)cc1OC [Compound 242]
500 to 1000 nM	CCOc1cc(C(=O)Nc2ccc(CCN(C)Cc3cccc(-n4cnc(C)c4)c3)cc2)c(NC(=O)c2cc(=O)c3ccccc3o2)cc1OC [Compound 110]
> 1000 nM	COc1cc(NC(=O)c2cc(=O)c3ccccc3o2)c(C(=O)Nc2ccc(CCN(Cc3ccc4cnn(C)c4c3)Cc3ccc4cnn(C)c4c3)cc2)cc1OC [Compound 170]
< 100 nM	COc1ccc(CN(CCc2ccc(NC(=O)c3cc(OC)c(OC)cc3NC(=O)c3cc(=O)c4ccccc4o3)cc2)Cc2cncn2C)cc1OC [Compound 147]
> 1000 nM	COC(=O)c1ccc(C(=O)Nc2ccc(CCN(C)Cc3ccc4c(cnn4C)c3)cc2)c(NC(=O)c2ccccn2)c1 [Compound 277]
> 1000 nM	COc1cc(NC(=O)c2cc(=O)c3ccccc3o2)c(C(=O)Nc2ccc(CCN(CC3=CNCN3C)Cc3ccc4cnn(C)c4c3)cc2)cc1OC [Compound 35]
> 1000 nM	COc1cc(NC(=O)c2cc(=O)c3ccccc3o2)c(C(=O)Nc2ccc(CCN(Cc3ccc4c(cnn4C)c3)Cc3cncs3)cc2)cc1OC [Compound 140]

IC50	Structure (SMILES)
250 to 500 nM	COc1cc(NC(=O)c2cc(=O)c3ccccc3o2)c(C(=O)Nc2ccc(CCN(Cc3cccc(-n4ccnc4)c3)Cc3ccc4nn(C)cc4c3)cc2)cc1OC [Compound 204]
< 100 nM	CCN(CCc1ccc(NC(=O)c2cc(OC)c(OC)cc2NC(=O)c2cc(=O)c3ccccc3o2)cc1)Cc1cccc(OC[C@@H]2CO[C@@](Cn3ccnc3)(c3ccc(Cl)cc3Cl)O2)c1 [Compound 127]
250 to 500 nM	COc1cc(NC(=O)c2cc(=O)c3cc(C)ccc3o2)c(C(=O)Nc2ccc(CCN(Cc3cncc(C)c3)Cc3ccc4c(cnn4C)c3)cc2)cc1OC [Compound 77]
100 to 250 nM	COc1cncc(CN(CCc2ccc(NC(=O)c3cc(OC)c(OC)cc3NC(=O)c3cc(=O)c4ccccc4o3)cc2)Cc2ccc3c(c2)n(C)c(=O)n3C)c1 [Compound 69]
500 to 1000 nM	COc1cc(NC(=O)c2cc(=O)c3ccccc3o2)c(C(=O)Nc2ccc(CCN(Cc3cccc(-c4nc(C)no4)c3)Cc3cncs3)cc2)cc1OC [Compound 202]
500 to 1000 nM	COc1cc(NC(=O)C2CC(=O)c3ccccc3O2)c(C(=O)Nc2ccc(CCN(C)Cc3ccc(-c4cccnc4)cc3)cc2)cc1OC (stereo not shown) [Compound 88]
500 to 1000 nM	COc1cc(NC(=O)c2cc(=O)c3ccccc3o2)c(C(=O)Nc2ccc(CCN3CCc4ccncc4C3)cc2)cc1OC [Compound 78]
> 1000 nM	COc1ccc(CN(CCc2ccc(NC(=O)c3ccc(C(=O)O)cc3NC(=O)c3cc(=O)c4ccccc4o3)cc2)Cc2ccc(OC)c(OC)c2)cc1OC [Compound 264]
> 1000 nM	COc1cc(NC(=O)c2cc(=O)c3ccccc3o2)c(C(=O)Nc2ccc(CCN(C)Cc3cccc(-c4c[nH]cn4)c3)cc2)cc1OC [Compound 13]
> 1000 nM	COc1cc(NC(=O)c2cc(=O)c3ccccc3o2)c(C(=O)Nc2ccc(CCN(C)Cc3ccc(-c4ncco4)cc3)cc2)cc1OC [Compound 114]
100 to 250 nM	CCOc1cncc(CN(CCc2ccc(NC(=O)c3cc(OC)c(OC)cc3NC(=O)c3cc(=O)c4ccccc4o3)cc2)Cc2ccc3c(cnn3C)c2)c1 [Compound 55]
250 to 500 nM	COc1cc(NC(=O)c2cc(=O)c3ccccc3o2)c(C(=O)Nc2ccc(CCN(Cc3ccc(-n4ccnc4)cc3)Cc3ccc4c(cnn4C)c3)cc2)cc1OC [Compound 26]
100 to 250 nM	COc1cc(NC(=O)c2cc(=O)c3ccccc3o2)c(C(=O)NCc2ccc(CN(Cc3cccc(-n4ccnc4)c3)Cc3ccc4c(cnn4C)c3)cc2)cc1OC [Compound 233]
> 1000 nM	COc1cc(NC(=O)c2cnc3ccccc3n2)c(C(=O)Nc2ccc(CCN(Cc3ccc4c(cnn4C)c3)Cc3ccc(C)c4ncccc34)cc2)cc1OC [Compound 173]
< 100 nM	COC(=O)c1ccc(C(=O)Nc2ccc(CCN(Cc3cncc(OC)c3)Cc3cncc(OC)c3)cc2)c(NC(=O)c2cc(=O)c3ccccc3o2)c1 [Compound 258]
100 to 250 nM	COc1cc(NC(=O)c2cc(=O)c3ccccc3o2)c(C(=O)Nc2ccc(CCN(Cc3cccnc3)Cc3cccc(-n4ccnc4)c3)cc2)cc1OC [Compound 216]
100 to 250 nM	COc1cc(NC(=O)c2cc(=O)c3ccccc3o2)c(C(=O)Nc2ccc(CCN(Cc3ccc(-n4ccnc4)cc3)Cc3ccc4cnn(C)c4c3)cc2)cc1OC [Compound 186]
> 1000 nM	COC(=O)c1ccc(C(=O)Nc2ccc(CCN(C)Cc3ccc4c(cnn4C)c3)cc2)c(NC(=O)c2cnc3ccccc3c2)c1 [Compound 281]
500 to 1000 nM	COc1cc(NC(=O)c2cc(=O)c(O)co2)c(C(=O)Nc2ccc(CCN(C)Cc3ccc(-n4ccnc4)cc3)cc2)cc1OC [Compound 128]
100 to 250 nM	COc1cc(NC(=O)c2cc(=O)c3cc(C)ccc3o2)c(C(=O)Nc2ccc(CCN(Cc3cccnc3)Cc3ccc4c(cnn4C)c3)cc2)cc1OC [Compound 38]
